Results on five compounds are retold here after article doi:10.1101/2020.06.11.145995v1 (biorxiv, 2020).

The target of this test is T1, C202S (C218S) mutant MKK7 kinase domain (Homo sapiens, UniProt O14733, C202S).
T1 sequence (O14733 1-419 C202S): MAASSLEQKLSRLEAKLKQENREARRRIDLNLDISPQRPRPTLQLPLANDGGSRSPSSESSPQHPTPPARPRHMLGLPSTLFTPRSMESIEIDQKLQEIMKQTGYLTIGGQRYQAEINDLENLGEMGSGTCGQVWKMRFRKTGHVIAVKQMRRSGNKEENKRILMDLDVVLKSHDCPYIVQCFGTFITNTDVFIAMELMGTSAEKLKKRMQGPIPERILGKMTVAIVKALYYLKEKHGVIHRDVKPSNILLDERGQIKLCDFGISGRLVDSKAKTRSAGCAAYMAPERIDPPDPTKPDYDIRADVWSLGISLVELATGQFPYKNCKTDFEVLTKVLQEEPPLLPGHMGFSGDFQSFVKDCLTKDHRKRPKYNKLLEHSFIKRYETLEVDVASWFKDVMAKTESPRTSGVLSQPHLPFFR
The note with it: binder.

Consider `O=C1NC(=O)C(=Cc2ccc3c(c2)OC(F)(F)O3)S1` [K00828, PI3Kg inhib II (528108)], for which the “ΔTm C202S” value stood at 0.6 °C.
Consider `Brc1c(Br)c(Br)c2[nH]nnc2c1Br` [K00040, TBB (218697)], for which the “ΔTm C202S” value amounted to 3.3 °C.
`Cc1cc(Nc2cc(C3CC3)[nH]n2)nc(Nc2ccc(CC#N)cc2)n1` [ASC69]: the “ΔTm C202S” value was 4.9 °C.
On to `O=C1Nc2ccccc2/C1=C/c1c[nH]cn1` [K00007], for which the “ΔTm C202S” value is 2.3 °C.
Regarding `CCN1CCN(Cc2ccc(NC(=O)c3ccc(C)c(C=Cc4cnc5[nH]ccc5c4OC)c3)cc2C(F)(F)F)CC1` [K03427, HG-6-64-01], the “ΔTm C202S” value came out at 3.5 °C.
